The source of these data is US20130245110A1, “USE FOR CANNABINOIDS” (priority 2008, published 2013).

SMILES strings stand for the structures.

One assay has as its system C57B1/6 ob/ob mouse. Description: Plasma triglycerides. The format is in vivo. The following applies: ob/ob mice; CBD given on its own (3.0 mg/kg). Here is the method:
The following are a battery of tests used to elicit the effects of drugs on diseases including type I or II diabetes, obesity, dyslipidaemia, related metabolic disorders and cardiovascular disease. • a) Body weight: Bodyweights of all mice were measured twice weekly during the study. • b) Food intake: Food intake was measured by weight difference taking account of food wastage in the bottom of the cage. • c) Measurement of water consumption: Water intake was calculated daily for each animal, during the treatment period, by weight difference of the water bottle. • d) Oral Glucose Tolerance Test (OGTT): Glucose was dissolved in water (3 g/10 ml) and given to the mice orally at a rate of 3 g/kg. […] Samples were then analysed automatically using a SpectraMax-250 and SoftMax Pro software. • f) Plasma preparation: Blood was collected for the measurement of i) plasma insulin, ii) cholesterol, iii) free fatty acids or iv) triglyceride concentration. • i. Plasma insulin analysis: Plasma insulin was measured using 5 μl of plasma, compared with a mouse insulin standard using a 96-well micro-assay plate • ii. […] The samples were mixed and incubated for 5 minutes before reading at dual wavelengths of 500 and 660 nm. • iii. Plasma free fatty acids: 5 μl samples of plasma were measured into a 96-well assay plate, to which was added 0.2 ml of reagents NEFA C • iv. […]

A further assay relates to C57B1/Ks db/db mouse. Kind of assay: Glycaemic control (blood glucose, oral glucose tolerance, 24 h glucose profile). The assay is classed as in vivo. To be noted: db/db mice. An excerpt:
Inflammation is also a feature of type II diabetic animals and man. […] However, as a result of the C57B1/Ks genetic background rather than the C57B1/6, the mice show loss of pancreatic function from around 6/7 weeks of age and by 10 weeks show frank diabetes.
• Daily: Food and water intake • Twice weekly: Body weight and glucose • Day 1: Weigh mice, dose compounds, provide measured amount of food, provide measured amount of water • Days 2, 5 and 8: Fed blood glucose concentration • Day 9: Oral glucose tolerance • Days 12 and 16: Fed blood glucose concentration • Day 19: 24 hr glycaemic assay • Days 22, 26 and 29: Fed blood glucose concentration • Day 33: 24 hr glycaemic assay • Day 38: Fed blood glucose concentration • Day 39: Body composition by Dexascan in anaesthetised mice • Day 41: Termination. Take blood samples for glucose, free fatty acids, triglycerides, cholesterol, insulin and HbA

A further assay deals with NOD mice. The following applies: 86% in non-treated controls; cited from earlier work.
The next assay deals with 3T3L1 cells. Description: Induction of adipocyte differentiation (Oil red O). The format is cell-based. The following applies: treated for 8 days. Here is the method: In vitro vascular studies were carried out in rat isolated aortae by wire myography. PPARγ activation was investigated using reporter gene assays, a PPARγ competition-binding assay and an adipogenesis assay.
Cells were fixed and stained with Oil red O to identify fat droplets, to the presence of which indicates differentiation of fibroblasts into adipocytes. […] […].

Assay [1] has as its system dietary induced obese (DIO) mouse model. Kind of assay: Percentage body fat by Dexascan. To be noted: DIO mice; day 28 Dexascan; pure THCV at 30-fold lower dose than rimonabant. The format is in vivo.

Take `C=C(C)[C@@H]1CCC(C)=C[C@H]1c1c(O)cc(CCCCC)cc1O` [CBD, cannabidiol]: the Plasma triglycerides entry with C57B1/6 ob/ob mouse was “no effect on plasma triglycerides”. For the same molecule, the “Glycaemic control versus control” value in the assay on C57B1/Ks db/db mouse is on record as “did not show significant differences in glycaemic control”. The Incidence of diabetes in the assay with NOD mice was 30%. Moreover, the “Differentiation of fibroblasts into adipocytes (Oil Red O staining of fat droplets)” value in the assay on 3T3L1 cells is given as “signs of fat droplet accumulation were apparent at all concentrations tested”.

Turning to `CCCc1cc(O)c2c(c1)OC(C)(C)[C@@H]1CCC(C)=C[C@@H]21` [THCV, tetrahydrocannabivarin], the Percentage body fat entry in assay [1] is recorded as “at least as effective as rimonabant”.
